Consider ten compounds from publication PMC8145986, “In Vitro Enzymatic and Kinetic Studies, and In Silico Drug-Receptor Interactions, and Drug-Like Profiling of the 5-Styrylbenzamide Derivatives as Potential Cholinesterase and β-Secretase Inhibitors with Antioxidant Properties” (Antioxidants, 2021).

One series addresses T1, AChE (Homo sapiens, UniProt P22303).
T1 construct: purchased BioLegend (via Biocom Africa (Pty) Ltd.)
Put plainly: biochemical. The conditions noted are these: mean ± SD of three independent experiments. Here is the method: (§1) The melting point values of the test compounds were recorded on a Thermocouple digital melting point apparatus (Mettler Toledo LLC, Columbus, OH, USA). The infrared (IR) spectra were recorded using the thin-film method on a Bruker VERTEX 70 FT-IR Spectrometer (Bruker Optics, Billerica, MA, USA) equipped with an ATR (diamond attenuated total reflectance) accessory. Merck kieselgel 60 (0.063–0.200 mm) (Merck KGaA, Frankfurt, Germany) was used as a stationary phase for column chromatography. The ^1H-NMR and ^13C-NMR spectra of the prepared compounds were obtained as deuterated dimethyl sulfoxide ((CD3)2SO) solutions using Agilent 500 MHz NMR spectrometer (Agilent Technologies, Oxford, UK) operating at 500 MHz and 125 MHz for ^1H and ^13C, respectively. The chemical shifts are quoted relative to tetramethylsilane (TMS) used as an internal reference standard (δ = 0.00 ppm) or a residual protonated solvent. The high-resolution mass spectra were recorded at an ionization potential of 70 eV using Micromass Autospec-TOF (double focusing high resolution) instrument (Waters Corp., Milford, MA, USA). The synthesis and analytical data for 2-amino-5-iodobenzamide (1) have been reported in our previous study. Recombinant human AChE (BioLegend) and BChE (Cloud-Clone Corp.) were purchased via Biocom Africa (Pty) Ltd. (Centurion, Pretoria, South Africa).
(§2) AChE and BChE were used to determine cholinesterase activities spectrophotometrically using […] as substrates, respectively, following a modification of the Ellman’s method, as described in our previous study, and the reactions were performed in triplicate at 37 °C in a 96-well plate. […] A multi-channel pipette was used for the addition of reagents to the wells.
To each well of a 96-well plate, 8.0 μL solution of the test compound, 2.0 μL of AChE (0.04 mg/mL), and 70 μL of Tris buffer (C4H11NO3, 50 mM, pH 7.7) were added sequentially. The assay mixture was pre-incubated for 30 min at room temperature, which was followed by the addition of 10 μL of 5,5′-dithiobis-(2-nitrobenzoic acid) (DTNB, 3 mM in Tris buffer, 50 mM, pH 7.7) and 10 μL of […] (AChI, 5 mM in tris buffer, 50 mM, pH 7.7) to each well to initiate the reaction. […] The average values obtained from the absorbance readings were used to determine the IC50 and standard deviation values using the Graph Pad Prism (version 5.0, GraphPad software Inc., San Diego, CA, USA).

Series [1] concerns the target T2, BChE (Homo sapiens, UniProt P06276).
T2 construct: purchased Cloud-Clone Corp. (via Biocom Africa (Pty) Ltd.)
Put plainly: biochemical. The conditions noted are these: mean ± SD of three independent experiments. As to the method:
as §1, §2
A total of 8.0 μL of the test compound and 2.0 μL of BChE (0.02 mg/mL) was added to each of the designated wells of the 96-well plate, and the mixtures were incubated at room temperature for 30 min. Tris buffer (70 μL) was added to each well containing the reaction mixture and incubation was continued for a further 10 min at this temperature, which was followed by the addition of 10 μL solution of 5,5′-dithiobis-(2-nitrobenzoic acid) (DTNB) (3 mM in Tris buffer, 50 mM, pH 7.7) and butyrylcholine iodide (5 mM in Tris buffer, 50 mM, pH 7.7) to each well to initiate the reaction. […] The IC50 and standard deviation values using the Graph Pad Prism.

For a further series, the target named is T3, β-secretase (Homo sapiens, UniProt P56817).
T3 construct: purchased Thermo Fisher Scientific Corporation; host or cells: baculovirus-expressed
Put plainly: β-Secretase (BACE-1) inhibition assay. In kind it is biochemical. The conditions noted are these: mean ± SD of three independent experiments. As to the method:
The β-secretase inhibitory activities of the test compounds were assayed in triplicates in 96-well plates using a recombinant baculovirus-expressed β-secretase and a specific substrate (Rh-[…]-Quencher), according to the manufacturer’s (Thermo Fisher Scientific Corporation, Johannesburg, Gauteng, South Africa) instructions, as described in our previous study. […] To each well, 2.0 μL human recombinant β-secretase (1.0 U/mL) was added to start the reaction and the reaction mixture was incubated for 60 min at room temperature. […] The IC50 and standard deviation values of both the test compounds and reference standard were calculated using the Graph Pad Prism.

Series [2] can be described thus: DPPH radical scavenging assay. The conditions noted are these: read-out: IC50 (SD) DPPH. Here is the method: The antioxidant activities of the test compounds against ascorbic acid (Sigma Aldrich, Saint Louis, MO, USA) as a positive control were evaluated using a 2,2-diphenyl-1-picrylhydrazyl (DPPH) radical scavenging assay developed by Zhu et al., as described in our previous study. Duplicate solutions (20 μL) of the test compounds and ascorbic acid in DMSO (final concentrations: 5, 10, 25, 50, and 100 μM) were added into each designated well of a 96-well plate. A solution of DPPH (0.20 mM) (20 μL) in methanol was added to each well, and the 96-well plate was wrapped with aluminium foil and incubated in the dark for 45 min. Five absorbance readings were recorded at 512 nm using a Varioskan flash microplate spectrophotometer reader. The average values obtained from the absorbance readings were used to determine the IC50 and standard deviation values.
On the technique in general: The DPPH test is a chemical assay of radical scavenging.

The nature of series [3]: Nitric oxide radical scavenging assay (Griess reaction). The conditions noted are these: NO radical scavenging. As to the method:
Nitric oxide was generated from sodium nitroprusside and measured by Griess’ reaction following the literature method. The experiment was done in triplicate with ascorbic acid (vitamin C) used as a positive control for the assay. In total, 50 μL of each of the test compounds and the positive control at various concentrations (0.1, 0.5, 1.0, 5.0, and 10.0 μM in methanol) were added to each designated well of the 96 well plate. A total of 50 μL of sodium nitroprusside (10 mM) prepared in saline phosphate buffer (pH = 7.4) was then added to each well and the reaction mixture incubated at room temperature for 3 h. Afterward, 300 μL of the Griess reagent (a mixture of 0.2% N-(1-naphthyl)ethylenediamine dihydrochloride and 2% sulfanilamide in […]) was added to each well and absorbance was read at 546 nm using a Varioskan flash microplate spectrophotometer reader.
(The Griess reaction detects nitrite, a stable product of nitric oxide.)

Series [4] has as its system BChE. Further details: method as in PMID 23722618. The conditions noted are these: cited from earlier work.
Series [5] in a line: in vitro. As to the method:
(§3) The cytotoxicity activity of the compounds was evaluated using the 3-(4,5-dimethylthiazol-2-yl)-2,5-diphenyltetrazolium bromide (MTT) assay following a modification of a method by Mosmann. Normal monkey kidney cells (Vero cells) and adeno-carcinomic human epithelial cells (A549 cells) were maintained in Dulbecco’s modified Eagle’s medium (DMEM, Gibco) supplemented with 10% fetal bovine serum (FBS) and 1% penicillin/streptomycin in culture flasks and incubated at 37 °C in 5% CO2. […] Cells were seeded at 1 × 10^5 cells/well and incubated overnight to allow cell attachment. After 24 h, treatments were administered with different concentrations (0, 2.5, 5, 10, 25, 50, and 100 μM) of the compounds and doxorubicin (positive control). After 24 h of incubation, 20 μL of the MTT solution (5 mg/mL) was added in all the wells, which was followed by 4 h of incubation.

Series [6] is described as follows: in vitro. The conditions noted are these: human. As to the method: as §3
The next series has as its system Vero cells. Kind of series: LPS-induced ROS production in Vero cells (H2DCF-DA). Format: cell-based, monkey. The conditions noted are these: 10 μM compound, LPS 1 μg/mL, 24 h (Figure 9a). As to the method:
(§4) Mitochondrial ROS levels in Vero and A549 cell lines was measured using the 2′,7′-dichlorofluorescin diacetate (H2DCF-DA) (Sigma-Aldrich, St. Louis, MO, USA, Merck, Darmstadt, Germany), fluorescent probe. Cells (1 × 10^5) were seeded in 96 well plates and incubated overnight at 37 °C in 5% CO2. A minimum non-toxic concentration (10 μM) of compounds (2a and 3b) was added separately as treatment and further incubated for an hour, after which LPS (1 μg/mL) was added to induce the production of ROS. After 24 h of incubation, the media was aspirated, cells were rinsed with PBS, and followed by the addition of H2DCF-DA (10 μM) for 30 min in the dark. The absorbance of the fluorescence was measured using a microplate reader (VarioSkan Flash, Thermo Fisher Scientific, Finland) at 485 and 535 nm values of excitation and emission, respectively. Data was processed and analysed using ANOVA, which was followed by Duncan’s multiple comparison test.

Another series deals with A549 cells. Kind of series: LPS-induced ROS production in A549 cells (H2DCF-DA). In kind it is cell-based, human. The conditions noted are these: 10 μM compound, LPS 1 μg/mL, 24 h (Figure 9b). As to the method:
as §4

T3 sequence (P56817 46-501): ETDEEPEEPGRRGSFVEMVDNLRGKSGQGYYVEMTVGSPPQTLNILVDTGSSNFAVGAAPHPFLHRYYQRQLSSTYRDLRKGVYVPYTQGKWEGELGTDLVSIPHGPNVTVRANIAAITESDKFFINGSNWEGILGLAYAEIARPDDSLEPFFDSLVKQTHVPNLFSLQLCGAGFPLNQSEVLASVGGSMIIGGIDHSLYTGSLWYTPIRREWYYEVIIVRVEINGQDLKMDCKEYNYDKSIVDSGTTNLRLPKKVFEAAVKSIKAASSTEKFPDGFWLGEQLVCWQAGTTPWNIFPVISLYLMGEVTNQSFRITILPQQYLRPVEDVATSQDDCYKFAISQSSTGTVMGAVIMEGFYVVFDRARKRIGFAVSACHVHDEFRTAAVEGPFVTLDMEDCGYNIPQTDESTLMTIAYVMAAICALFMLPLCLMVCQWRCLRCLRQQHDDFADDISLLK
T1 sequence (P22303 32-614): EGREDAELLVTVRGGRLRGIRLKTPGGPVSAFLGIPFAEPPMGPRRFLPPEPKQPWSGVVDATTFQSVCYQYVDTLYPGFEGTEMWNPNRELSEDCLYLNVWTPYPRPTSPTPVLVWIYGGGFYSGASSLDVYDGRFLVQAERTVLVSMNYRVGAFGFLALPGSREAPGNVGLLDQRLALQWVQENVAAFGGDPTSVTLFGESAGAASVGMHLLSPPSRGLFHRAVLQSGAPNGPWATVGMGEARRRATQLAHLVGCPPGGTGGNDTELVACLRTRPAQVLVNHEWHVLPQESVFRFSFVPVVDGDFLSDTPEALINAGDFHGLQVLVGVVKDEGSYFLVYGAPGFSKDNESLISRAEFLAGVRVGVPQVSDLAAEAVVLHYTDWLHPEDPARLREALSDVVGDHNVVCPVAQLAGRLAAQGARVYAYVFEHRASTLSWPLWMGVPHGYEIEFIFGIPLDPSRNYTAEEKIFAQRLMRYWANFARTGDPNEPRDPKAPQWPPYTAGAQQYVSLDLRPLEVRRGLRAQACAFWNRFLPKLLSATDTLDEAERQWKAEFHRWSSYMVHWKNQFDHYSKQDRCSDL
T2 sequence (P06276 29-602): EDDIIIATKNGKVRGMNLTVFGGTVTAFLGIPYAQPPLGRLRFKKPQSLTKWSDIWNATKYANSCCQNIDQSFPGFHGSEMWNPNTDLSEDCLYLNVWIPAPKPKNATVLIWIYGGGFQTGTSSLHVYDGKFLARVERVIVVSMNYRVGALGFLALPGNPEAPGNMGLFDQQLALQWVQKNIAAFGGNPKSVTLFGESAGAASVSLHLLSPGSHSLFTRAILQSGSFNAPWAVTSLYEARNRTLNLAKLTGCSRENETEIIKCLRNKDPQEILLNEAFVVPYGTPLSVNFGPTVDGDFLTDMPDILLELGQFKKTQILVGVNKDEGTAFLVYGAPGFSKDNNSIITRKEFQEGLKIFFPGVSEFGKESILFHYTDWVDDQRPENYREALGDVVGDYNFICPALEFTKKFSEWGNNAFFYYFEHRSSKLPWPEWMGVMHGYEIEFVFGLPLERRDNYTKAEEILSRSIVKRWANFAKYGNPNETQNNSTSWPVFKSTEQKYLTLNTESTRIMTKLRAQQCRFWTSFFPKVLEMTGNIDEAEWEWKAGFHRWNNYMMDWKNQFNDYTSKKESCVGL

Turning to `NC(=O)c1cc(/C=C/c2ccc(Cl)cc2)ccc1N` [Compound 2c, (E)-2-Amino-5-(4-chlorostyryl)benzamide], the IC50 (usually the midpoint of a concentration-inhibition curve) is 8.6 ± 0.42 µM against AChE; 18.9 ± 0.24 µM against BChE [1]; 6.7 ± 0.18 µM at β-secretase; 11.3 ± 0.11 µM in [2]; 9.3 ± 0.13 µM in series [3].

Regarding `Oc1ccccc1/C=C/c1cc(O)c(F)c(O)c1` [C], in the series with BChE [4], the “fold more active and selective against BChE than against AChE” value is given as 94 fold.

For `O=C1O[C@H]([C@@H](O)CO)C(O)=C1O` [Ascorbic acid, reference compound], the 50% inhibitory concentration (IC50) is 4.2 µM in series [2] (listed as ascorbic acid), 4.18 ± 0.13 µM in series [2], 6.23 ± 0.13 µM in series [3] and 6.2 µM in [3] (listed as ascorbic acid).

Turning to `Cc1ccc(S(=O)(=O)Nc2ccc(/C=C/c3ccccc3)cc2C(N)=O)cc1` [Compound 3a, (E)-5-Styryl-2-[[(4-methylphenyl)sulfonyl]amino]benzamide], the IC50 at AChE is 9.5 ± 0.53 µM; against BChE [1] it was 10.8 ± 0.4 µM; against β-secretase it was 16.5 ± 0.31 µM; in series [2], 19.4 ± 0.4 µM; in [3] it was 13.1 ± 0.43 µM.

Regarding `NC(=O)c1cc(/C=C/c2ccc(F)cc2)ccc1N` [Compound 2b, (E)-2-Amino-5-(4-fluorostyryl)benzamide], the IC50 on AChE was 5.4 ± 0.12 µM; at BChE [1] it was 19.7 ± 0.25 µM; at β-secretase, 13.9 ± 0.25 µM; in series [2] it was 12.9 ± 0.22 µM; in series [3], 15.8 ± 0.3 µM.

Consider `COc1cccc2c1C(=O)c1c(O)c3c(c(O)c1C2=O)C[C@@](O)(C(=O)CO)C[C@@H]3O[C@H]1C[C@H](N)[C@H](O)[C@H](C)O1` [Doxorubicin, reference compound], for which the IC50 at 24 h in the series “in vitro [5]” stood at 0.66 ± 0.12 µM; in the series “in vitro [6]”, 1.14 ± 0.23 µM.

With `COc1ccc(/C=C/c2ccc(N)c(C(N)=O)c2)cc1` [Compound 2d, (E)-2-Amino-5-(4-methoxystyryl)benzamide], the concentration for half-maximal inhibition (IC50) against AChE amounted to 7.8 ± 0.3 µM; against BChE [1] it was 14.6 ± 0.47 µM; against β-secretase, 17.2 ± 0.31 µM; in series [2] it was 20.8 ± 0.24 µM; in series [3], 11.2 ± 0.22 µM.

As to `Cc1ccc(S(=O)(=O)Nc2ccc(/C=C/c3ccc(Cl)cc3)cc2C(N)=O)cc1` [Compound 3c, (E)-5-(4-Chlorostyryl)-2-[[(4-methylphenyl)sulfonyl]amino]benzamide], the concentration for half-maximal inhibition (IC50) is 7.8 ± 0.21 µM against AChE; 6.9 ± 0.1 µM against BChE [1]; 15 ± 0.16 µM at β-secretase; 22.4 ± 0.51 µM in series [2]; 8.6 ± 0.3 µM in series [3].

For the compound `Cc1ccc(S(=O)(=O)Nc2ccc(/C=C/c3ccc(F)cc3)cc2C(N)=O)cc1` [Compound 3b, (E)-5-(4-Fluorostyryl)-2-[[(4-methylphenyl)sulfonyl]amino]benzamide], the concentration for half-maximal inhibition (IC50) on AChE came to 4.3 ± 0.48 µM; on BChE [1], 8.1 ± 0.52 µM; at β-secretase, 10.1 ± 0.18 µM; in series [2], 25.6 ± 0.3 µM. The IC50 at 24 h in “in vitro [5]” (monkey, Vero cells (normal monkey kidney cells)) was found to be 191.4 ± 0.6 µM; in “in vitro [6]” (A549 cells (adeno-carcinomic human epithelial cells)), 55 ± 0.11 µM. For the same compound, in the series on Vero cells, the “suppression of LPS-induced ROS” value is given as about 40%. For the same compound, the “ROS reduction (in words)” value in the series with A549 cells was “significant ROS reduction”.

With `COc1ccc(/C=C/c2ccc(NS(=O)(=O)c3ccc(C)cc3)c(C(N)=O)c2)cc1` [Compound 3d, (E)-5-(4-Methoxystyryl)-2-[[(4-methylphenyl)sulfonyl]amino]benzamide], the IC50 turned out to be 11.3 ± 0.23 µM against AChE; 13.3 ± 0.26 µM at BChE [1]; 19.3 ± 0.24 µM against β-secretase; 9.1 ± 0.26 µM in series [2]; 12.3 ± 0.31 µM in [3].
